Assay results published in patent publication US5972982A (priority 1997, dated 1999).
Values after ≈ are worked out from the molar mass of the structure shown.

Columns and labels:
[1] = test system: several DNA and RNA viruses; conditions: against several DNA and RNA viruses; cited from earlier work
[2] = test system: Poliovirus Type III vaccine strain (ATCC VR 300); format: cell-based
[3] = test system: Buffalo Green Monkey Kidney Cells (ATCC CCL 81)
[4] = test system: Streptococcus pyogenes; assay: microbe, parasite or virus in culture; conditions: 48 h
[5] = test system: Mycobacterium tuberculosis strain H37Rv; assay: microbe, parasite or virus in culture; format: cell-based; conditions: read-out: MIC VERSUS H37Rv
[6] = test system: Poliovirus Type III vaccine strain (ATCC VR 300); assay: microbe, parasite or virus in culture; format: cell-based
[7] = test system: HEP 2 Cells (ATCC HB 8065); assay: Antiviral assay of Respiratory Syncytial Virus: toxicity to uninfected cells; format: cell-based
Procedure: c. […] The cell count wells receive media only.
d. The cultures are incubated for 24 hr.
e. […] Scoring is as described above.

Q: Which “broad spectrum antiviral activity” value [1] does the source give for `Nc1ncnc2c1ncn2C[C@H](O)CO` [(S)-9-(2',3'-dihydroxypropyl)adenine] here?
A: broad spectrum antiviral activity

Q: With `Nc1ncnc2c1ncn2C[C@@H](CO)OCP(=O)(O)O` [(S)-9-(3'-dihydroxy-2'-phosphonylmethoxypropyl)adenine] as the compound, how does the “broad spectrum antiviral activity” value [1] read?
A: broad spectrum antiviral activity

Q: Which “VIRAL CPE” value [2] does the source give for `CCCCCCCCCCCCCCCCCCOCC(CO)n1cncn1` (stereo not shown) [CPR 1004, 1-O-octadecyl-2-(1-triazolyl)-2-deoxy-glycerol] here?
A: ±

Q: What about the TOXICITY [3] of the same compound?
A: N

Q: And the “toxicity (in words)” value [3]?
A: not toxic at the concentrations tested

Q: And the MIC [4]?
A: 1 µg/mL (≈ 2.53 µM)

Q: And the MIC [5]?
A: 12.5 µg/mL (≈ 31.6 µM)

Q: And the “VIRUS YIELD (PFU/mL)” value [6]?
A: 7.0 × 10^5 PFU/mL

Q: And the “VIRUS YIELD FOLD-REDUCTION” value [6]?
A: 41.7 fold

Q: And the activity at 100000 µM ([6]; Enterovirus C, read-out: VIRUS YIELD (YIELD))?
A: 2.4%

Q: With `CCCCCCCCCCCCCCCCCCOCC(CO)n1ccnc1` (stereo not shown) [CPR 1005, 1-O-octadecyl-2-(1-imidazolyl)-2-deoxy-glycerol] as the compound, how does the TOXICITY [3] read?
A: N

Q: What about the “toxicity (in words)” value [3] of the same compound?
A: not toxic at the concentrations tested

Q: What about the MIC [4] of the same compound?
A: 10 µg/mL (≈ 25.3 µM)

Q: And the MIC [5]?
A: 6.25 µg/mL (≈ 15.8 µM)

Q: And the TOXICITY ([7]; Table 4, HEP 2 cells, 24 hr, final concentration 100 (mM))?
A: N

Q: And the “toxicity (in words)” value ([7]; at the dosages tested)?
A: not toxic at the dosages tested

Q: What about the “VIRUS YIELD (PFU/mL)” value [6] of the same compound?
A: 2.8 × 10^3 PFU/mL

Q: What about the “VIRUS YIELD FOLD-REDUCTION” value [6] of the same compound?
A: 1.03×10^4 fold

Q: For `CCCCCCCCCCCCCCCCOCC(CO)n1ccnc1` (stereo not shown) [CPR 1104, 1-O-hexadecyl-2-(1-imidazolyl)-2-deoxy-glycerol], which MIC [5] is on record?
A: 1.6 µg/mL (≈ 4.36 µM)
